What was measured:
[1] = Apparent permeability across apical to basolateral side in MDCK-MDR1 cells at 1 to 10 uM measured after 1 hrs by LC/MS/MS analysis; type: ADME, cell-based, Canis lupus familiaris; conditions: dog, dose 1-10 µM
[2] = Metabolic stability in mouse liver microsomes at 1 uM in presence of NADPH generating system by LC/MS/MS analysis; type: ADME, Microsome; conditions: read-out: Stability
[3] = molecular target: T1, Histone-lysine N-methyltransferase EZH2 (Homo sapiens, UniProt Q15910); assay: Inhibition of EZH2 (unknown origin) using 3H-SAM as substrate incubated for 1 hour by filter binding method
KARPAS-422 = assay: Antiproliferative activity against human KARPAS-422 cells assessed as cell growth inhibition incubated for 72 hrs followed by compound dilution in growth medium and measured after 96 hrs by Alamar blue assay; type: functional, cell-based
MDR1 = assay: Efflux ratio of apparent permeability across basolateral to apical side over apical to basolateral side in MDCK-MDR1 cells at 1 to 10 uM measured after 1 hrs by LC/MS/MS analysis; type: ADME, cell-based, Canis lupus familiaris; conditions: dog, dose 1-10 µM
[4] = molecular target: T1, Histone-lysine N-methyltransferase EZH2; assay: Inhibition of EZH2 in HEK293T cells assessed as H3K27me3 levels incubated for 48 hrs by flow cytometry; type: cell-based
[5] = Metabolic stability in human liver microsomes at 1 uM in presence of NADPH generating system by LC/MS/MS analysis; type: ADME, Microsome; conditions: read-out: Stability
[6] = Ratio of unbound drug concentration in brain to blood in Sprague-Dawley rat at 1 mg/kg, iv measured after 15 mins by LC/MS/MS analysis; type: ADME, organism-based; conditions: read-out: K(p,uu,brain)

T1 sequence (Q15910 whole entry): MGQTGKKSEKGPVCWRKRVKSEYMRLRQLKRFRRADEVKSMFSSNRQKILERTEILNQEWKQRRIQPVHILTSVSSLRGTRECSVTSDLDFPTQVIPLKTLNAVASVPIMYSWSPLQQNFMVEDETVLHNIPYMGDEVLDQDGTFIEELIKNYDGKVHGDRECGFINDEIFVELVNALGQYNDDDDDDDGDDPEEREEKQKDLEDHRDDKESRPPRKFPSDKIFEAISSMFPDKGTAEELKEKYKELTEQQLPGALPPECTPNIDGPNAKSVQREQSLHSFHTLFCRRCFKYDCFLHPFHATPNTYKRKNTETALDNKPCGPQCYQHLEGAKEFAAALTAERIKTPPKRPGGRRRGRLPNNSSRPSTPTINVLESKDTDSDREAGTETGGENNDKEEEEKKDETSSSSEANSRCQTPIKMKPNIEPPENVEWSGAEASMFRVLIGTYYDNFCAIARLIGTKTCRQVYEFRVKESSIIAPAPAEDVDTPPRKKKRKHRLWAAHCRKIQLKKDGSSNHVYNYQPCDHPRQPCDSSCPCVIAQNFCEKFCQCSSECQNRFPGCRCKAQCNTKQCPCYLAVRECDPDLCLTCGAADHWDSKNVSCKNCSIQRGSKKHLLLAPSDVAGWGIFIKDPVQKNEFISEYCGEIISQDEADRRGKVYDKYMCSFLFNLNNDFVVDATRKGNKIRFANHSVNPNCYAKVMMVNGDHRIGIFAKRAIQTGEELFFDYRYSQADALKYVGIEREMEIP

SMILES	Papp A→B at 1 h, up to 10 µM [1] [×10⁻⁶ cm/s]	microsomal CLint at 1 µM [2] [µL/min/mg]	IC50 [3] [nM]	IC50 (KARPAS-422) [nM]	efflux ratio at 1 h, up to 10 µM (MDR1)	IC50 [4] [nM]	microsomal CLint at 1 µM [5] [µL/min/mg]	Kp uu at 0.25 h [6]
Cc1cc(C)c(CN2CCc3c(Cl)cc(-c4c(C)noc4C)c(Cl)c3C2=O)c(=O)[nH]1	3.7	253	1	122	4.8	16	210	< 0.003
COc1cc(C)[nH]c(=O)c1CN1CCN(C)c2c(Cl)cc(-c3ccc(Cl)cc3F)c(Cl)c2C1=O		297	72.1				97	
CCc1cc(C)[nH]c(=O)c1CN1CCN(C)c2c(Cl)cc(-c3c(C)noc3C)c(Cl)c2C1=O	< 0.1		1.8		> 170			
COc1cc(C)[nH]c(=O)c1CN1CCN(C)c2c(Cl)cc(OC(C)C)c(Cl)c2C1=O		> 768	33.4				29	
COc1cc(C)n(C)c(=O)c1CN1CCN(C)c2c(Cl)cc(-c3c(C)noc3C)c(Cl)c2C1=O			541					
CCN(c1cc(Cl)c2c(c1Cl)C(=O)N(Cc1c(OC)cc(C)[nH]c1=O)CCN2C)C1CCOCC1		> 768	1.9				181	
Cc1cc(C)n(C)c(=O)c1CN1CCc2c(Cl)cc(-c3c(C)noc3C)c(Cl)c2C1=O	10.5	> 768		4680			449	0.29
COc1cc(C)[nH]c(=O)c1CN1CCN(C)c2ccc(-c3c(C)noc3C)c(Cl)c2C1=O	< 0.1		2.9				9	
COc1cc(C)[nH]c(=O)c1CN1CCN(C)c2c(Cl)cc(-c3ccc(CN4CCOCC4)cc3)c(Cl)c2C1=O		41	220				41	
CSc1cc(C)n(C)c(=O)c1CN1CCN(C)c2c(Cl)cc(-c3c(C)noc3C)c(Cl)c2C1=O	0.2		11.4	10400	110			
Cc1noc(C)c1-c1cc(Cl)c2c(c1Cl)C(=O)N(Cc1c(C3CC3)cc(C)n(C)c1=O)CC2	5.2	> 768	302		1.5		490	
COc1cc(C)n(C)c(=O)c1CN1CCc2c(Cl)cc(-c3c(C)noc3C)c(Cl)c2C1=O	1	656	11.6	2950	23		117	
CCN1CCN(Cc2c(OC)cc(C)[nH]c2=O)C(=O)c2c(Cl)c(-c3c(C)noc3C)cc(Cl)c21			33.4					
COc1cc(C)[nH]c(=O)c1CN1CCN(C)c2c(Cl)cc(-c3c(C)noc3C)c(Cl)c2C1=O	< 0.1	112	0.87	245	> 49	208	80	
CSc1cc(C)[nH]c(=O)c1CN1CCN(C)c2c(Cl)cc(-c3c(C)noc3C)c(Cl)c2C1=O	< 0.1		0.9	125	> 99			
COc1cc(C)[nH]c(=O)c1CN1CCNc2c(Cl)cc(-c3c(C)noc3C)c(Cl)c2C1=O	< 0.1	123	0.35	65	> 51	17	79	
CSc1cc(C)n(C)c(=O)c1CN1CCc2c(Cl)cc(-c3c(C)noc3C)c(Cl)c2C1=O	0.3	796	1.3	632	110		235	
CSc1cc(C)n(C)c(=O)c1CN1CCNc2c(Cl)cc(-c3c(C)noc3C)c(Cl)c2C1=O	0.2		2.1	1320	220			
COc1cc(C)[nH]c(=O)c1CN1CCN(C)c2c(Cl)cc(C(O)C3CCOCC3)c(Cl)c2C1=O (stereo not given)		91	9.4				34	
CCc1cc(C)n(C)c(=O)c1CN1CCc2c(Cl)cc(-c3c(C)noc3C)c(Cl)c2C1=O	11	> 768	82		0.72		> 768	
COc1cc(C)[nH]c(=O)c1CN1CCN(C)c2c(Cl)cc(-c3ccc(N4CCOCC4)cc3)c(Cl)c2C1=O		8	64.8				7	
COc1cc(C)[nH]c(=O)c1CN1CCN(C)c2c(Cl)cc(C(C)C3CCOCC3)c(Cl)c2C1=O (stereo not given)		562	2				206	
Cc1noc(C)c1-c1cc(Cl)c2c(c1Cl)C(=O)N(Cc1c(C(F)(F)F)cc(C)n(C)c1=O)CC2	4.9	592	> 1000		2.4		287	

Source: ChEMBL document CHEMBL5046305, “A Chemical Strategy toward Novel Brain-Penetrant EZH2 Inhibitors” (ACS Med Chem Lett, 2022)
